Results taken from patent publication US10463670B2, “Use of non-peptide NK1 antagonists in a predetermined dose for the treatment of cancer” (SERVICIO ANDALUZ DE SALUD, priority 2013, dated 2019).

Columns and labels:
[1] = test system: human melanoma; reference MEL-HO; experiment: Melanoma MEL-HO tumours implanted s.c. in nude mice, Aprepitant alone; assay type: in vivo
Experimental: (§1) Immunocompromised female mice, 5-6 weeks of age were used, nu/nu Balb/c nude mice, provided by Harlan Iberica Barcelona (Spain). They were kept at 24° C. and in sterile conditions with food and water “ad libitum”. They were injected with 2×10^7 tumour cells, corresponding to cancer (human lung cancer, reference HCC-44 supplied by DSMZ) in 200 μl of PBS subcutaneous route. The tumour size was measured and the mice were evaluated for their state of health and weight daily. The mice were randomized in nine groups when the tumours reached a volume of 75 mm^3. One of the groups was treated with 200 μl of placebo (control group) and the eight remaining groups with doses of 10 (group 1), 20 (group 2), 30 (group 3), 40 (group 4), 50 (group 5), 60 (group 6), 70 (group 7) and 80 (group 8) mg per kilogram of weight and day of the NK1 receptor antagonist Aprepitant. 3 animals were treated per group, during 28 days. All the mice were sacrificed at the end of the experiment.
Immunocompromised female mice, 5-6 weeks of age were used, in the same conditions as explained in example 1. They were injected with 2×10^7 tumour cells, corresponding to a melanoma cell line tumour (human melanoma; reference MEL-HO; supplied by DSMZ) in 200 μl of PBS by subcutaneous route. The tumour size was measured and the mice were evaluated for their state of health and weight daily. The mice were randomized in nine groups when the tumours reached a volume of 75 mm^3. One of the groups was treated with 200 μl of placebo (control group) and the eight remaining groups with doses of 10 (group 1), 20 (group 2), 30 (group 3), 40 (group 4), 50 (group 5), 60 (group 6), 70 (group 7) and 80 (group 8) mg per kilogram of weight and day of the NK1 receptor antagonist Aprepitant. 3 animals were treated per group, during 28 days. All the mice were sacrificed at the end of the experiment.

[2] = test system: human lung cancer, reference HCC-44; experiment: Lung cancer HCC-44 tumours implanted s.c. in nude mice, Aprepitant alone; assay type: in vivo
Experimental: as §1

Human melanoma MEL HO = experiment: MTS cell proliferation, nanomolar antagonist, MEL HO; assay type: cell-based; conditions: Aprepitant 1, 5 and 7 nM, vs cells grown in the absence of antagonist, time dependant
Experimental: Cell cultures of various commercial tumour cell lines stated in table 13 were used. [table] […] The number of cells was quantified using a Coulter counter. […] The culture plates were grown in the presence of increasing concentrations of non-peptide NK1 receptor antagonists. To obtain the staining in the proliferation assays, 20 μl of MTS were added to each one of the wells of the cell culture plates 90 minutes before reading the samples in a multiscan spectrophotometer (TECAN Spectra classic, Barcelona, Spain) at 492 nm (assay wavelength) and 690 nm (reference wavelength). The different doses were tested in duplicate and each experiment was performed in triplicate. The antagonist Aprepitant was used at the following concentrations: 1 nanomolar -nM-, 5 nanomolar -nM- and 7 nanomolar -nM-. […] As proliferation control, the cells were grown in the absence of said antagonist. This is expressed in FIGS. 1 to 10.

[3] = Aprepitant 10 mg/kg/day, 7 days
[4] = Aprepitant 10 mg/kg/day, 14 days
[5] = Aprepitant 10 mg/kg/day, 21 days
[6] = Aprepitant 10 mg/kg/day, 28 days
[7] = Aprepitant 20 mg/kg/day, 7 days
[8] = Aprepitant 20 mg/kg/day, 14 days
[9] = Aprepitant 20 mg/kg/day, 21 days
[10] = Aprepitant 20 mg/kg/day, 28 days
[11] = Aprepitant 30 mg/kg/day, 7 days
[12] = Aprepitant 30 mg/kg/day, 14 days
[13] = Aprepitant 30 mg/kg/day, 21 days
[14] = Aprepitant 30 mg/kg/day, 28 days
[15] = Aprepitant 40 mg/kg/day, 7 days
[16] = Aprepitant 40 mg/kg/day, 14 days
[17] = Aprepitant 40 mg/kg/day, 21 days
[18] = Aprepitant 40 mg/kg/day, 28 days
[19] = Aprepitant 50 mg/kg/day, 7 days
[20] = Aprepitant 50 mg/kg/day, 14 days
[21] = Aprepitant 50 mg/kg/day, 21 days
[22] = Aprepitant 50 mg/kg/day, 28 days
[23] = Aprepitant 60 mg/kg/day, 7 days
[24] = Aprepitant 60 mg/kg/day, 14 days
[25] = Aprepitant 60 mg/kg/day, 21 days
[26] = Aprepitant 60 mg/kg/day, 28 days
[27] = Aprepitant 70 mg/kg/day, 7 days
[28] = Aprepitant 70 mg/kg/day, 14 days
[29] = Aprepitant 70 mg/kg/day, 21 days
[30] = Aprepitant 70 mg/kg/day, 28 days
[31] = Aprepitant 80 mg/kg/day, 7 days
[32] = Aprepitant 80 mg/kg/day, 14 days
[33] = Aprepitant 80 mg/kg/day, 21 days
[34] = Aprepitant 80 mg/kg/day, 28 days

With `C[C@@H](O[C@H]1OCCN(Cc2n[nH]c(=O)[nH]2)[C@H]1c1ccc(F)cc1)c1cc(C(F)(F)F)cc(C(F)(F)F)c1` [Aprepitant] the “Tumour size (mean volume of the tumour)” value [1, 3] was 235 ± 3 cubic millimeters, the “Tumour size (mean volume of the tumour)” value [1, 4] was 215 ± 4 cubic millimeters and the “Tumour size (mean volume of the tumour)” value [1, 5] was 190 ± 4 cubic millimeters. For the same compound, the “Tumour size (mean volume of the tumour)” value [1, 6] was 170 ± 6 cubic millimeters, the “Tumour size (mean volume of the tumour)” value [1, 7] was 210 ± 6 cubic millimeters and the “Tumour size (mean volume of the tumour)” value [1, 8] was 200 ± 5 cubic millimeters. The “Tumour size (mean volume of the tumour)” value [1, 9] was 175 ± 5 cubic millimeters, the “Tumour size (mean volume of the tumour)” value [1, 10] was 150 ± 7 cubic millimeters and the “Tumour size (mean volume of the tumour)” value [1, 11] was 195 ± 7 cubic millimeters. The “Tumour size (mean volume of the tumour)” value [1, 12] was 185 ± 6 cubic millimeters, the “Tumour size (mean volume of the tumour)” value [1, 13] was 160 ± 6 cubic millimeters and the “Tumour size (mean volume of the tumour)” value [1, 14] was 140 ± 4 cubic millimeters. The “Tumour size (mean volume of the tumour)” value [1, 15] was 175 ± 8 cubic millimeters, the “Tumour size (mean volume of the tumour)” value [1, 16] was 160 ± 8 cubic millimeters and the “Tumour size (mean volume of the tumour)” value [1, 17] was 140 ± 4 cubic millimeters. For the same compound, the “Tumour size (mean volume of the tumour)” value [1, 18] was 110 ± 6 cubic millimeters, the “Tumour size (mean volume of the tumour)” value [1, 19] was 160 ± 5 cubic millimeters and the “Tumour size (mean volume of the tumour)” value [1, 20] was 150 ± 4 cubic millimeters. The “Tumour size (mean volume of the tumour)” value [1, 21] was 125 ± 5 cubic millimeters, the “Tumour size (mean volume of the tumour)” value [1, 22] was 100 ± 7 cubic millimeters and the “Tumour size (mean volume of the tumour)” value [1, 23] was 145 ± 6 cubic millimeters. For the same compound, the “Tumour size (mean volume of the tumour)” value [1, 24] was 135 ± 5 cubic millimeters, the “Tumour size (mean volume of the tumour)” value [1, 25] was 115 ± 6 cubic millimeters and the “Tumour size (mean volume of the tumour)” value [1, 26] was 85 ± 4 cubic millimeters. The “Tumour size (mean volume of the tumour)” value [1, 27] was 125 ± 4 cubic millimeters, the “Tumour size (mean volume of the tumour)” value [1, 28] was 105 ± 6 cubic millimeters and the “Tumour size (mean volume of the tumour)” value [1, 29] was 90 ± 4 cubic millimeters. The “Tumour size (mean volume of the tumour)” value [1, 30] was 80 ± 7 cubic millimeters, the “Tumour size (mean volume of the tumour)” value [1, 31] was 100 ± 6 cubic millimeters and the “Tumour size (mean volume of the tumour)” value [1, 32] was 95 ± 7 cubic millimeters. The “Tumour size (mean volume of the tumour)” value [1, 33] was 65 ± 7 cubic millimeters, the “Tumour size (mean volume of the tumour)” value [1, 34] was 65 ± 9 cubic millimeters and the “Tumour size (mean volume of the tumour)” value [2, 3] was 210 ± 2 cubic millimeters. The “Tumour size (mean volume of the tumour)” value [2, 4] was 190 ± 4 cubic millimeters, the “Tumour size (mean volume of the tumour)” value [2, 5] was 165 ± 6 cubic millimeters and the “Tumour size (mean volume of the tumour)” value [2, 6] was 135 ± 3 cubic millimeters. The “Tumour size (mean volume of the tumour)” value [2, 7] was 205 ± 8 cubic millimeters, the “Tumour size (mean volume of the tumour)” value [2, 8] was 170 ± 3 cubic millimeters and the “Tumour size (mean volume of the tumour)” value [2, 9] was 145 ± 4 cubic millimeters. The “Tumour size (mean volume of the tumour)” value [2, 10] was 110 ± 4 cubic millimeters, the “Tumour size (mean volume of the tumour)” value [2, 11] was 185 ± 4 cubic millimeters and the “Tumour size (mean volume of the tumour)” value [2, 12] was 150 ± 6 cubic millimeters. The “Tumour size (mean volume of the tumour)” value [2, 13] was 135 ± 5 cubic millimeters, the “Tumour size (mean volume of the tumour)” value [2, 14] was 105 ± 2 cubic millimeters and the “Tumour size (mean volume of the tumour)” value [2, 15] was 155 ± 5 cubic millimeters. For the same compound, the “Tumour size (mean volume of the tumour)” value [2, 16] was 130 ± 4 cubic millimeters, the “Tumour size (mean volume of the tumour)” value [2, 17] was 120 ± 4 cubic millimeters and the “Tumour size (mean volume of the tumour)” value [2, 18] was 95 ± 4 cubic millimeters. For the same compound, the “Tumour size (mean volume of the tumour)” value [2, 19] was 130 ± 4 cubic millimeters, the “Tumour size (mean volume of the tumour)” value [2, 20] was 115 ± 7 cubic millimeters and the “Tumour size (mean volume of the tumour)” value [2, 21] was 105 ± 6 cubic millimeters. The “Tumour size (mean volume of the tumour)” value [2, 22] was 85 ± 6 cubic millimeters, the “Tumour size (mean volume of the tumour)” value [2, 23] was 110 ± 3 cubic millimeters and the “Tumour size (mean volume of the tumour)” value [2, 24] was 95 ± 8 cubic millimeters. The “Tumour size (mean volume of the tumour)” value [2, 25] was 80 ± 7 cubic millimeters, the “Tumour size (mean volume of the tumour)” value [2, 26] was 65 ± 4 cubic millimeters and the “Tumour size (mean volume of the tumour)” value [2, 27] was 95 ± 4 cubic millimeters. For the same compound, the “Tumour size (mean volume of the tumour)” value [2, 28] was 80 ± 6 cubic millimeters, the “Tumour size (mean volume of the tumour)” value [2, 29] was 65 ± 8 cubic millimeters and the “Tumour size (mean volume of the tumour)” value [2, 30] was 40 ± 7 cubic millimeters. The “Tumour size (mean volume of the tumour)” value [2, 31] was 70 ± 4 cubic millimeters, the “Tumour size (mean volume of the tumour)” value [2, 32] was 55 ± 7 cubic millimeters and the “Tumour size (mean volume of the tumour)” value [2, 33] was 40 ± 6 cubic millimeters. The “Tumour size (mean volume of the tumour)” value [2, 34] was 25 ± 5 cubic millimeters and the “Proliferation of tumour cells (MTS)” value (Human melanoma MEL HO) was “increase was observed of proliferation”.
